The record followed here is US6878689B2, “Preventives or remedies for heart failure” (Kaken Pharmaceutical Co., Ltd., priority 2000, dated 2005).

Structures are written as SMILES. Where a SMILES comes first, the peptide text is derived from it. [ ]: non-standard residue; d: D form. d2Nal = N[C@H](Cc1ccc2ccccc2c1)C(=O)O

The data set deals with dogs with occluded anterior descending coronary artery. Briefly: Effect of intravenously administered pralmorelin on cardiac function of dog with anterior descending coronary artery occlusion. The format is in vivo. As to conditions: 100 μg/kg i.v. As to the method:
[Test Example 3] Effect of Intravenously Administered Pralmorelin on the Cardiac Function of Dog with a Model of Anterior Descending Coronary Artery Occlusion
Using a dog model of acute contractile dysfunction caused by occlusion of the anterior descending coronary artery, the inventors studied the cardiotonic action of pralmorelin.
The action of pralmorelin on the cardiac dysfunction deteriorated by occlusion of the coronary artery was evaluated by various hemodynamic parameters, cardiac output (CO), stroke volume (SV), maximal positive dP/dt of left ventricular pressure (+dP/dtmax), ejection fraction (EF), mean blood pressure (MBP), heart rate (HR), total peripheral resistance (TPR) and double product (RPP) as an index of myocardial oxygen consumption. • 1. Test Materials and Method • 1) Test Substance and Reagents • (1) Control
Pralmorelin dihydrochloride (hereunder referred to as KP-102) (prepared by the method described in WO 9304081) was dissolved in distilled water to prepare a 0.5 mg/mL solution. • (3) Reagents
In the experiment, adult beagles of either sex (weighing 9-11 kg) purchased from Nihon Nosan Kogyo K.K. (Kanagawa, Japan) were used. After arrival, the animals were allowed to eat a solid meal (CD-5, CLEA Japan, Inc. or Labo D Stock, Nark Corp.) and drink water in a room at a temperature of 20±2° C. and at a humidity of 55±15% under illumination for 12 hours a day (from 7:00 to 19:00); the animals were kept under these conditions for at least one week before use. • 3) Method of Measurement
Anesthesia was introduced by intravenous administration of pentobarbital (30 mg/kg) and in order to maintain anesthesia, pentobarbital (5-6 mg/kg/hr) was injected continuously by means of an infusion pump (FP-W-100, Toyo Sangyo) through a polyethylene cannula retained in the right cephalic vein. The endotracheal cannula was inserted and the chest was opened at the left fourth intercostal space under artificial respiration in a tidal volume of 20 mL/kg at a rate of 18 breaths/min with an artificial respirator (SN-480-3 of Shinano Seisakusho). The left anterior descending coronary artery was carefully detached from the site of origin over a length of 1-2 cm and an occluding thread was passed through.
The chest was opened at the left fifth intercostal space and a 5-segment conductance catheter (CCS-108-DA, Unique Medical) was inserted from the cardiac apex so that all electrodes would be placed in the left ventricle. A catheter equipped with a 5 Fr microtip pressure transducer (pressure transducer catheter, Model MPC-500, MILLAR) was inserted into the left ventricle through the left carotid artery. The conductance catheter and the pressure transducer catheter inserted into the left ventricle were connected to a built-in amplifier in a ventricular volume-measuring instrument (Integral 3; VPR-1002, Unique Medical) and the changes in the left ventricular pressure (LVP) and the volume of the left ventricle were measured simultaneously. To determine the mean blood pressure (MBP), blood pressure was measured via a blood pressure amplifier (AP641G, Nihon Kohden) from the 5 Fr pressure transducer catheter inserted into the left femoral artery. Heart rate (HR) was measured with a cardiotachometer (AT-601G, Nihon Kohden) from the pulse waves of blood pressure.
The chest was opened again at the fourth intercostal space and in order to measure the cardiac output (CO(EMF)) (CO as determined by an electromagnetic blood flowmeter based method), a probe connected to an electromagnetic blood flowmeter (MFV-2100, Nihon Kohden) was fitted at the site of origin of the aorta. A spiral electrode was put in the ischemic region that occurred due to the occlusion of coronary artery and a surface electrocardiogram was recorded. A Doppler probe was fitted on the left anterior descending coronary artery and the blood flow was determined with a Doppler blood flowmeter (PD-20, Crystal Biotech). […]

Turning to `C[C@H](NC(=O)[C@@H](Cc1ccc2ccccc2c1)NC(=O)[C@@H](C)N)C(=O)N[C@@H](Cc1c[nH]c2ccccc12)C(=O)N[C@H](Cc1ccccc1)C(=O)N[C@@H](CCCCN)C(N)=O` [KP-102, D-alanyl-3-(naphthalen-2-yl)-D-alanyl-L-alanyl-L-tryptophyl-D-phenylalanyl-L-lysinamide] (H-[dA][d2Nal]AW[dF]K-NH2), the “change in LVEDP” value is “Neither of the control and KP-102 groups showed changes in LVPsys and LVEDP”; the “change in LVPsys” value was “Neither of the control and KP-102 groups showed changes in LVPsys and LVEDP”; the “change in double product (RPP), index of myocardial oxygen consumption” value was “Neither group experienced a change in RPP”; the “change in heart rate (HR)” value is “Neither of MBP and HR changed”. Moreover, the “change in mean blood pressure (MBP)” value was “Neither of MBP and HR changed”; the “change in −dP/dtmax in comparison with control group” value was “no significant change”. Moreover, the “increase in stroke volume (SV) from baseline before administration” value (5 minutes after the administration, n=5, p<0.05 vs control) is reported as 5%. Besides, the “maximum increase in cardiac output (CO) from baseline before administration” value (10 minutes after the administration, n=5, p<0.05 vs control) amounted to 7%. In addition, the “increase in +dP/dtmax from baseline before administration” value (10 minutes after the administration, p<0.05 vs control for first 20 minutes) stood at 7%. Also, the “maximal increase in ejection fraction (EF)” value (in 10 minutes, significant vs control) was 10%. Further, where the note is “p<0.05 vs control”, the “change in total peripheral resistance (TPR)” value is “dropped following the administration”.
